Source: patent US12660819B2, “Herbicidal derivatives” (SYNGENTA CROP PROTECTION AG, priority 2020, dated 2026)

How the values were obtained:
Type in all cases: in vivo
[1] = test system: Abutilon theophrasti (ABUTH); assay: Post-emergence Test (glasshouse, percentage damage to the plant); conditions: post-emergence spray, 1000 g/ha unless otherwise stated, evaluated after 13 days
Outline: (§1)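 Seeds are sown in standard soil under controlled glasshouse conditions. The pots are then sprayed at 1000 g/ha, unless otherwise stated, with compound in acetone/water (50:50) containing 0.5% Tween 20. After 13 days further growth, percentage plant damage is scored from 1 (0-20%) to 5 (81-100%).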

[2] = test system: Amaranthus retoflexus (AMARE); assay: as above; conditions: post-emergence spray, 1000 g/ha unless otherwise stated, evaluated after 13 days
Outline: as §1

[3] = test system: Echinochloa crus-galli (ECHCG); assay: as above; conditions: post-emergence spray, 1000 g/ha unless otherwise stated, evaluated after 13 days
Outline: as §1

[4] = test system: Ipomoea hederacea (IPOHE); assay: as above; conditions: post-emergence spray, 1000 g/ha unless otherwise stated, evaluated after 13 days
Outline: (§2)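 Seeds sown in pots in glasshouse (24/16 °C day/night, 14 h light, 65% humidity), then sprayed with compound at 1000 g/ha unless stated, from acetone/water 50:50 with 0.5% Tween 20. Damage assessed 13 days later on five-point scale (1=0–20% to 5=81–100%).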

[5] = test system: Setaria faberi (SETFA); assay: as above; conditions: post-emergence spray, 1000 g/ha unless otherwise stated, evaluated after 13 days
Outline: as §2

[6] = test system: Zea mays (ZEAMX); assay: as above; conditions: post-emergence spray, 1000 g/ha unless otherwise stated, evaluated after 13 days
Outline: as §2

[7] = test system: Amaranthus retoflexus (AMARE); assay: Pre-emergence Test (glasshouse, percentage damage to the plant); conditions: 1000 g/ha unless otherwise stated, five-point scale
[8] = test system: Setaria faberi (SETFA); assay: as above; conditions: 1000 g/ha unless otherwise stated, five-point scale
[9] = test system: Echinochloa crus-galli (ECHCG); assay: as above; conditions: 1000 g/ha unless otherwise stated, five-point scale
[10] = test system: Ipomoea hederacea (IPOHE); assay: as above; conditions: 1000 g/ha unless otherwise stated, five-point scale
[11] = test system: Abutilon theophrasti (ABUTH); assay: as above; conditions: 1000 g/ha unless otherwise stated, five-point scale
[12] = test system: Zea mays (ZEAMX); assay: as above; conditions: 1000 g/ha unless otherwise stated, five-point scale

SMILES | Post-emergence Test ABUTH, percentage damage to the plant (five-point scale) [1] | Post-emergence Test AMARE, percentage damage to the plant (five-point scale) [2] | Post-emergence Test ECHCG, percentage damage to the plant (five-point scale) [3] | Post-emergence Test IPOHE, percentage damage to the plant (five-point scale) [4] | Post-emergence Test SETFA, percentage damage to the plant (five-point scale) [5] | Post-emergence Test ZEAMX, percentage damage to the plant (five-point scale) [6] | percentage damage to the plant, AMARE [7] | percentage damage to the plant, SETFA [8] | percentage damage to the plant, ECHCG [9] | percentage damage to the plant, IPOHE [10] | percentage damage to the plant, ABUTH [11] | percentage damage to the plant, ZEAMX [12]
CCOc1cc(C)cc(-c2c(C)n(CC)c(-c3ccc(Cl)c(Cl)c3)c(C(=O)O)c2=O)c1 [Compound 103, 2-(3,4-dichlorophenyl)-5-(3-ethoxy-5-methyl-phenyl)-1-ethyl-6-methyl-4-oxo-pyridine-3-carboxylic acid] | 2 (2=21-40%) | 1 (1=0-20%) | 1 (1=0-20%) | 1 (1=0-20%) | 1 (1=0-20%) | 1 (1=0-20%) | 1 (1=0-20%) | 2 (2=21-40%) | 1 (1=0-20%) | 1 (1=0-20%) | 1 (1=0-20%) | 1 (1=0-20%)
CCn1c(C)c(-c2ccc(F)c(F)c2)c(=O)c(C(=O)O)c1-c1ccc(Cl)c(Cl)c1 [Compound 104, 2-(3,4-dichlorophenyl)-5-(3,4-difluorophenyl)-1-ethyl-6-methyl-4-oxo-pyridine-3-carboxylic acid] | 3 (3=41-60%) | 3 (3=41-60%) | 3 (3=41-60%) | 1 (1=0-20%) | 4 (4=61-80%) | 1 (1=0-20%) | 4 (4=61-80%) | 4 (4=61-80%) | 2 (2=21-40%) | 1 (1=0-20%) | 2 (2=21-40%) | 1 (1=0-20%)
CCn1c(C)c(-c2ccc(F)c(OCC(F)(F)F)c2)c(=O)c(C(=O)O)c1-c1ccc(Cl)c(Cl)c1 [Compound 105, 2-(3,4-dichlorophenyl)-1-ethyl-5-[4-fluoro-3-(2,2,2-trifluoroethoxy)phenyl]-6-methyl-4-oxo-pyridine-3-carboxylic acid] | 2 (2=21-40%) | 2 (2=21-40%) | 3 (3=41-60%) | 1 (1=0-20%) | 4 (4=61-80%) | 2 (2=21-40%) | 3 (3=41-60%) | 4 (4=61-80%) | 2 (2=21-40%) | 1 (1=0-20%) | 1 (1=0-20%) | 1 (1=0-20%)
CCn1c(C)c(-c2cccc(C(F)F)c2)c(=O)c(C(=O)O)c1-c1ccc(Cl)c(Cl)c1 [Compound 106, 2-(3,4-dichlorophenyl)-5-[3-(difluoromethyl)phenyl]-1-ethyl-6-methyl-4-oxo-pyridine-3-carboxylic acid] | 3 (3=41-60%) | 3 (3=41-60%) | 1 (1=0-20%) | 2 (2=21-40%) | 1 (1=0-20%) | 1 (1=0-20%) | 1 (1=0-20%) | 1 (1=0-20%) | 1 (1=0-20%) | 1 (1=0-20%) | 2 (2=21-40%) | 1 (1=0-20%)
CCOc1cc(-c2c(C)n(CC)c(-c3ccc(Cl)c(Cl)c3)c(C(=O)O)c2=O)ccc1C#N [Compound 107, 5-(4-cyano-3-ethoxy-phenyl)-2-(3,4-dichlorophenyl)-1-ethyl-6-methyl-4-oxo-pyridine-3-carboxylic acid] | 3 (3=41-60%) | 4 (4=61-80%) | 2 (2=21-40%) | 3 (3=41-60%) | 2 (2=21-40%) | 2 (2=21-40%) | 4 (4=61-80%) | 5 (5=81-100%) | 4 (4=61-80%) | 1 (1=0-20%) | 1 (1=0-20%) | 1 (1=0-20%)
CCn1c(C)c(-c2ccc(C(F)(F)F)nc2)c(=O)c(C(=O)O)c1-c1ccc(Cl)c(Cl)c1 [Compound 108, 2-(3,4-dichlorophenyl)-1-ethyl-6-methyl-4-oxo-5-[6-(trifluoromethyl)-3-pyridyl]pyridine-3-carboxylic acid] | 2 (2=21-40%) | 2 (2=21-40%) | 2 (2=21-40%) | 2 (2=21-40%) | 3 (3=41-60%) | 2 (2=21-40%) | 1 (1=0-20%) | 3 (3=41-60%) | 1 (1=0-20%) | 1 (1=0-20%) | 1 (1=0-20%) | 1 (1=0-20%)
CCn1c(C)c(-c2ccc(C(=O)N(C)C)cc2)c(=O)c(C(=O)O)c1-c1ccc(Cl)c(Cl)c1 [Compound 109, 2-(3,4-dichlorophenyl)-5-[4-(dimethylcarbamoyl)phenyl]-1-ethyl-6-methyl-4-oxo-pyridine-3-carboxylic acid] | 3 (3=41-60%) | 1 (1=0-20%) | 2 (2=21-40%) | 4 (4=61-80%) | 3 (3=41-60%) | 1 (1=0-20%) | 1 (1=0-20%) | 4 (4=61-80%) | 1 (1=0-20%) | 1 (1=0-20%) | 1 (1=0-20%) | 1 (1=0-20%)
CCn1c(C)c(-c2cccc(OCC(F)(F)F)c2)c(=O)c(C(=O)O)c1-c1ccc(Cl)c(Cl)c1 [Compound 110, 2-(3,4-dichlorophenyl)-1-ethyl-6-methyl-4-oxo-5-[3-(2,2,2-trifluoroethoxy)phenyl] pyridine-3-carboxylic acid] | 1 (1=0-20%) | 1 (1=0-20%) | 1 (1=0-20%) | 1 (1=0-20%) | 1 (1=0-20%) | 1 (1=0-20%) | 1 (1=0-20%) | 1 (1=0-20%) | 1 (1=0-20%) | 1 (1=0-20%) | 1 (1=0-20%) | 1 (1=0-20%)
CCn1c(C)c(-c2ccc(COC)cc2)c(=O)c(C(=O)O)c1-c1ccc(Cl)c(Cl)c1 [Compound 111, 2-(3,4-dichlorophenyl)-1-ethyl-5-[4-(methoxymethyl)phenyl]-6-methyl-4-oxo-pyridine-3-carboxylic acid] | 4 (4=61-80%) | 2 (2=21-40%) | 3 (3=41-60%) | 2 (2=21-40%) | 4 (4=61-80%) | 2 (2=21-40%) | 1 (1=0-20%) | 5 (5=81-100%) | 4 (4=61-80%) | 1 (1=0-20%) | 2 (2=21-40%) | 3 (3=41-60%)
